We go through one compound from patent publication US7691843B2, “N-hydroxyamide derivatives possessing antibacterial activity” (Pfizer Inc., priority 2002, dated 2010).

What all share (format): in vivo
Assay [1] deals with Klebsiella pneumoniae ATCC 10031. Kind of assay: Efficacy in murine Klebsiella pneumoniae septicemia. To be noted: ATCC10031; ICR mice inoculated intraperitoneally with Klebsiella pneumoniae ATCC 10031 at 3×10^7 CFU; administered intravenously 1 hour after inoculation (doses in mg/kg); mortality recorded 7 days; non-linear regression. The procedure:
(§1) Efficacy studies were performed in an K. pneumoniae murine septicemia model according to models published elsewhere (Goldstein, B. P., G. Candiani, T. M. Arain, G. Romano, I. Ciciliato, M. Berti, M. Abbondi, R. Scotti, M. Mainini, F. Ripamonti, and et al. 1995. Antimicrobial activity of MDL 63,246, a new semisynthetic glycopeptide antibiotic Antimicrob Agents Chemother. 39:1580-1588; Misiek, M., T. A. Pursiano, F. Leitner, and K. E. Price 1973. Microbiological properties of a new cephalosporin, BL-S 339: 7-(phenylacetimidoyl-aminoacetamido)-3-(2-methyl-1,3,4-thiadiazol-5-ylthio methyl)ceph-3-em-4-carboxylic acid Antimicrob Agents Chemother. 3:40-48).
(§2) The compound was dissolved in 10% DMSO, 0.1% Tween 80, 0.9% NaCl solution and administered intravenously at 10 ml/kg at 1 hour after bacterial inoculation. The compound was administered at 20, 10, 5, 2.5, and 1.25 mg/kg. A control with ampicillin was included in the evaluation.
Male or female ICR mice weighing 24±2 g from MDS Pharma Services were used for the evaluation. Food and water was given ad libitum. Groups of 6 mice weighing 24±g were used for the experiment. Mice were inoculated intraperitoneally with Klebsiella pneumoniae ATCC 10031 at 3×10^7 CFU in 0.5 ml of Brain Heart Infusion Broth (Difco) containing 5% mucin (Sigma). Mortality was recorded once daily for 7 days following bacterial inoculation.

Assay [2] has as its system Proteus vulgaris ATCC 13315. Kind of assay: Efficacy in murine Proteus vulgaris septicemia. To be noted: ATCC13315; ICR mice inoculated intraperitoneally with Proteus vulgaris ATCC 13315 at 1×10^8 CFU; administered intravenously 1 hour after inoculation (doses in mg/kg); mortality recorded 7 days; non-linear regression. On the procedure: as §1, with “P. vulgaris” for “K. pneumoniae”
as §2
Male or female ICR mice weighing 24±2 g from MDS Pharma Services were used for the evaluation. Food and water was given ad libitum. Groups of 6 mice weighing 24±g were used for the experiment. Mice were inoculated intraperitoneally with Proteus vulgaris ATCC 13315 at 1×10^8 CFU in 0.5 ml of Brain Heart Infusion Broth (Difco) containing 5% mucin (Sigma). Mortality was recorded once daily for 7 days following bacterial inoculation.

The subject of assay [3] is Escherichia coli ATCC 25922. Kind of assay: Efficacy in murine E. coli septicemia. To be noted: ATCC25922; ICR mice inoculated intraperitoneally with Escherichia coli ATCC 25922 at 4×10^4 CFU; administered intravenously 1 hour after inoculation (doses in mg/kg); mortality recorded 7 days; non-linear regression. On the procedure:
as §1, with “E. coli” for “K. pneumoniae”
The compound was dissolved in 10% DMSO, 0.1% Tween 80, 0.9% NaCl solution and administered intravenously at 10 ml/kg at 1 hour after bacterial inoculation. The compound was administered at 80, 40, 20, 5, 2.5, and 1.25 mg/kg. A control with ampicillin was included in the evaluation.
Male or female ICR mice weighing 22±2 g from MDS Pharma Services were used for the evaluation. Food and water was given ad libitum. Groups of 6 mice weighing 22+g were used for the experiment. Mice were inoculated intraperitoneally with Escherichia coli ATCC 25922 at 4×10^4 CFU in 0.5 ml of Brain Heart Infusion Broth (Difco) containing 5% mucin (Sigma). Mortality was recorded once daily for 7 days following bacterial inoculation.

In the case of `CC1(C)S[C@@H]2[C@H](NC(=O)[C@H](N)c3ccccc3)C(=O)N2[C@H]1C(=O)O` [ampicillin], the ED50 in assay [1] was 6.8 mg/kg; in assay [2] it was 29.7 mg/kg; in assay [3] it was 14.1 mg/kg.

One may read the ED50 as the midpoint of the dose-response relation.
